Experimental data as given in ChEMBL document CHEMBL3885881, “DrugMatrix”.

Organism: Rattus norvegicus
Experiment: DrugMatrix - Regimen: Daily Repeat
Format: toxicity, organism-based, Sprague-Dawley
Set-up: regimen Daily Repeat, gender Male, age 6-8 weeks
Settings: in vivo, iv, vehicle 100 % SALINE; for ABSOLUTE BASOPHIL / ABSOLUTE EOSINOPHIL / ABSOLUTE LYMPHOCYTE / ABSOLUTE MONOCYTE / ABSOLUTE SEGMENTED NEUTROPHIL / BASOPHIL / EOSINOPHIL / ERYTHROCYTE COUNT / HEMATOCRIT / HEMOGLOBIN / LEUKOCYTE COUNT / LYMPHOCYTE / MEAN CORPUSCULAR HEMOGLOBIN / MEAN CORPUSCULAR HEMOGLOBIN CONCENTRATION / MEAN CORPUSCULAR VOLUME / MONOCYTE / NEUTROPHIL / NUCLEATED RED BLOOD CELLS / PLATELET COUNT: tissue Blood
[1] = 0 mg/kg, 72 h, dose level Control, time 3 day
[2] = 0 mg/kg, 72 h, tissue Plasma, dose level Control, time 3 day
[3] = 0 mg/kg, 120 h, dose level Control, time 5 day
[4] = 0 mg/kg, 120 h, tissue Plasma, dose level Control, time 5 day
[5] = […], 72 h, dose 0.56 mg/Kg, dose level High, time 3 day
[6] = […], 72 h, tissue Plasma, dose 0.56 mg/Kg, dose level High, time 3 day
[7] = […], 120 h, dose 0.56 mg/Kg, dose level High, time 5 day
[8] = […], 120 h, tissue Plasma, dose 0.56 mg/Kg, dose level High, time 5 day

INSULIN HUMAN
ABSOLUTE BASOPHIL [1]: 0 CELLS/uL
ABSOLUTE EOSINOPHIL [1]: 46.17 CELLS/uL
ABSOLUTE LYMPHOCYTE [1]: 9089 CELLS/uL
ABSOLUTE MONOCYTE [1]: 242 CELLS/uL
ABSOLUTE SEGMENTED NEUTROPHIL [1]: 856.17 CELLS/uL
BASOPHIL [1]: 0%
EOSINOPHIL [1]: 0.5%
ERYTHROCYTE COUNT [1]: 5.1 x10E6/uL
HEMATOCRIT [1]: 32.5%
HEMOGLOBIN [1]: 12.35 G/DL
LEUKOCYTE COUNT [1]: 10.23 x10E3/uL
LYMPHOCYTE [1]: 88.5%
MEAN CORPUSCULAR HEMOGLOBIN [1]: 24.18 pg
MEAN CORPUSCULAR HEMOGLOBIN CONCENTRATION [1]: 38 G/DL
MEAN CORPUSCULAR VOLUME [1]: 63.62 fL
MONOCYTE [1]: 2.5%
NEUTROPHIL [1]: 8.5%
NUCLEATED RED BLOOD CELLS [1]: 0.17 /100WBC
PLATELET COUNT [1]: 1038.67 x10E3/uL
ALANINE AMINOTRANSFERASE [2]: 51.33 u/L
ALBUMIN [2]: 3.9 G/DL
ALKALINE PHOSPHATASE [2]: 409.33 u/L
ASPARTATE AMINOTRANSFERASE [2]: 91.67 u/L
CHLORIDE [2]: 97.83 MEQ/L
CHOLESTEROL [2]: 79.33 mg/dL
CREATINE PHOSPHOKINASE [2]: 628.67 u/L
CREATININE [2]: 0.21 mg/dL
LACTATE DEHYDROGENASE [2]: 120.33 u/L
PHOSPHORUS [2]: 10.48 mg/dL
POTASSIUM [2]: 5.83 MEQ/L
TOTAL BILIRUBIN [2]: 0.2 mg/dL
TOTAL PROTEIN [2]: 6.15 G/DL
URIC ACID [2]: 0.45 mg/dL
ABSOLUTE BASOPHIL [3]: 0 CELLS/uL
ABSOLUTE EOSINOPHIL [3]: 12.17 CELLS/uL
ABSOLUTE LYMPHOCYTE [3]: 10388 CELLS/uL
ABSOLUTE MONOCYTE [3]: 140.17 CELLS/uL
ABSOLUTE SEGMENTED NEUTROPHIL [3]: 1576.33 CELLS/uL
BASOPHIL [3]: 0%
EOSINOPHIL [3]: 0.17%
ERYTHROCYTE COUNT [3]: 5.71 x10E6/uL
HEMATOCRIT [3]: 35.57%
LEUKOCYTE COUNT [3]: 12.12 x10E3/uL
LYMPHOCYTE [3]: 85.83%
MEAN CORPUSCULAR HEMOGLOBIN [3]: 23.53 pg
MEAN CORPUSCULAR HEMOGLOBIN CONCENTRATION [3]: 37.73 G/DL
MONOCYTE [3]: 1%
NEUTROPHIL [3]: 13%
NUCLEATED RED BLOOD CELLS [3]: 0.33 /100WBC
PLATELET COUNT [3]: 1347.67 x10E3/uL
ALANINE AMINOTRANSFERASE [4]: 47.83 u/L
ALKALINE PHOSPHATASE [4]: 380 u/L
ASPARTATE AMINOTRANSFERASE [4]: 81.17 u/L
BLOOD UREA NITROGEN [4]: 14.67 mg/dL
CARBON DIOXIDE [4]: 36.17 mmol/L
CHLORIDE [4]: 98.17 MEQ/L
CHOLESTEROL [4]: 69.33 mg/dL
CREATINE PHOSPHOKINASE [4]: 547.17 u/L
CREATININE [4]: 0.28 mg/dL
GLUCOSE [4]: 140.5 mg/dL
LACTATE DEHYDROGENASE [4]: 153.83 u/L
LIPASE [4]: 7.83 u/L
POTASSIUM [4]: 5.86 MEQ/L
TOTAL BILIRUBIN [4]: 0.17 mg/dL
TOTAL PROTEIN [4]: 6.33 G/DL
URIC ACID [4]: 0.68 mg/dL
ABSOLUTE BASOPHIL [5]: 0 CELLS/uL
ABSOLUTE EOSINOPHIL [5]: 0 CELLS/uL
ABSOLUTE LYMPHOCYTE [5]: 9557.33 CELLS/uL
ABSOLUTE MONOCYTE [5]: 233.33 CELLS/uL
ABSOLUTE SEGMENTED NEUTROPHIL [5]: 942.67 CELLS/uL
BASOPHIL [5]: 0%
EOSINOPHIL [5]: 0%
ERYTHROCYTE COUNT [5]: 5.18 x10E6/uL
HEMATOCRIT [5]: 33.13%
HEMOGLOBIN [5]: 12.73 G/DL
LEUKOCYTE COUNT [5]: 10.73 x10E3/uL
LYMPHOCYTE [5]: 89.33%
MEAN CORPUSCULAR HEMOGLOBIN [5]: 24.6 pg
MEAN CORPUSCULAR HEMOGLOBIN CONCENTRATION [5]: 38.43 G/DL
MEAN CORPUSCULAR VOLUME [5]: 64 fL
MONOCYTE [5]: 2%
NUCLEATED RED BLOOD CELLS [5]: 0.33 /100WBC
PLATELET COUNT [5]: 1173.33 x10E3/uL
ALANINE AMINOTRANSFERASE [6]: 50.67 u/L
ALBUMIN [6]: 3.9 G/DL
ALKALINE PHOSPHATASE [6]: 425.67 u/L
ASPARTATE AMINOTRANSFERASE [6]: 87.67 u/L
BLOOD UREA NITROGEN [6]: 16 mg/dL
CARBON DIOXIDE [6]: 29.33 mmol/L
CHLORIDE [6]: 98 MEQ/L
CHOLESTEROL [6]: 73.33 mg/dL
CREATINE PHOSPHOKINASE [6]: 247.67 u/L
CREATININE [6]: 0.2 mg/dL
GLUCOSE [6]: 158.67 mg/dL
LACTATE DEHYDROGENASE [6]: 90.33 u/L
LIPASE [6]: 12 u/L
POTASSIUM [6]: 5.04 MEQ/L
SODIUM [6]: 140.73 MEQ/L
TOTAL BILIRUBIN [6]: 0.17 mg/dL
TOTAL PROTEIN [6]: 6.1 G/DL
URIC ACID [6]: 0.33 mg/dL
ABSOLUTE BASOPHIL [7]: 0 CELLS/uL
ABSOLUTE EOSINOPHIL [7]: 0 CELLS/uL
ABSOLUTE LYMPHOCYTE [7]: 9972 CELLS/uL
ABSOLUTE MONOCYTE [7]: 151.33 CELLS/uL
ABSOLUTE SEGMENTED NEUTROPHIL [7]: 1610 CELLS/uL
BASOPHIL [7]: 0%
EOSINOPHIL [7]: 0%
ERYTHROCYTE COUNT [7]: 5.32 x10E6/uL
HEMATOCRIT [7]: 33.67%
LEUKOCYTE COUNT [7]: 11.73 x10E3/uL
LYMPHOCYTE [7]: 85%
MEAN CORPUSCULAR HEMOGLOBIN [7]: 24.17 pg
MEAN CORPUSCULAR HEMOGLOBIN CONCENTRATION [7]: 38.23 G/DL
NEUTROPHIL [7]: 13.67%
NUCLEATED RED BLOOD CELLS [7]: 0.33 /100WBC
PLATELET COUNT [7]: 1293.67 x10E3/uL
ALANINE AMINOTRANSFERASE [8]: 53.33 u/L
ALKALINE PHOSPHATASE [8]: 426 u/L
ASPARTATE AMINOTRANSFERASE [8]: 73 u/L
BLOOD UREA NITROGEN [8]: 14.67 mg/dL
CARBON DIOXIDE [8]: 34.67 mmol/L
CHLORIDE [8]: 98 MEQ/L
CREATINE PHOSPHOKINASE [8]: 305 u/L
CREATININE [8]: 0.27 mg/dL
GLUCOSE [8]: 134.67 mg/dL
LACTATE DEHYDROGENASE [8]: 124.33 u/L
LIPASE [8]: 7.67 u/L
PHOSPHORUS [8]: 10.33 mg/dL
POTASSIUM [8]: 5.91 MEQ/L
TOTAL BILIRUBIN [8]: 0.2 mg/dL
TOTAL PROTEIN [8]: 6.23 G/DL
URIC ACID [8]: 0.6 mg/dL
